Data taken from patent US20100292205A1, “Pyrimidone Compounds As GSK-3 Inhibitors” (PFIZER INC., priority 2006, published 2010).

biological target: T1, Recombinant human GSK3β (Homo sapiens, UniProt P49841); assay: GSK-3β (Glycogen Synthase Kinase) cell free enzyme assay; format: biochemical; conditions: 1 μM; Examples 157-199; read-out: Percent inhibition at 1 μM
T1 construct: His-tag; made in house; host or cells: Sf9 insect cells / baculovirus
Outline: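 Recombinant human GSK3β, expressed in SF9/baculovirus cells and His-tag purified on Ni-NTA Superflow, was preincubated with test agent for 30 minutes at room temperature. Substrate mix was then added to start the reaction in 8 mM MOPS (pH 7.0), 10 mM magnesium acetate, 0.2 mM EDTA, 1 mM DTT, 2 uM cold ATP, 0.025 uCi/well [33P]ATP (120 uL) and 1.0 uM biotinylated peptide. Reactions ran at RT for 60 min.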

T1 sequence (P49841 whole entry): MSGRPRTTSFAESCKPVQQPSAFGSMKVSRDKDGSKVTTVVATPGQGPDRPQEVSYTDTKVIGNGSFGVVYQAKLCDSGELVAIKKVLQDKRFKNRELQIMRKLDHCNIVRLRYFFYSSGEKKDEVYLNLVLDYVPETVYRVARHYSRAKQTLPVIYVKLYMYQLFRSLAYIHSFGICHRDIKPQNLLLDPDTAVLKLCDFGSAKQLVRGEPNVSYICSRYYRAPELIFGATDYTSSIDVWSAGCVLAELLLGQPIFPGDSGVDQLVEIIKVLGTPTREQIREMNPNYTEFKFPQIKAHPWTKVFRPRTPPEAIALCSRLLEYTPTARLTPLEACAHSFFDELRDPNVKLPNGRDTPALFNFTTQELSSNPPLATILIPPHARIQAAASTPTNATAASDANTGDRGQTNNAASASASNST

SMILES | inhibition at 1 µM [%]
Cn1c(N[C@@H]2CN(S(=O)(=O)c3ccccc3)C[C@@H]2F)nc(-c2ccncc2)cc1=O [Example 184, 2-{[(3R,4S)-4-Fluoro-1-(phenylsulfonyl)pyrrolidin-3-yl]amino}-3-methyl-6-pyridin-4-ylpyrimidin-4(3H)-one] | 100
CCN(c1nc(-c2ccncc2)cc(=O)n1C)C1CCCN(S(=O)(=O)c2ccccc2)C1 (stereo not shown) [Example 185, 2-{Ethyl[1-(phenylsulfonyl)piperidin-3-yl]amino}-3-methyl-6-pyridin-4-ylpyrimidin-4(3H)-one] | 101
CCN(c1nc(-c2ccncc2)cc(=O)n1C)C1CCCN(S(=O)(=O)c2ccccc2)CC1 (stereo not shown) [Example 186, 2-{Ethyl[1-(phenylsulfonyl)azepan-4-yl]amino}-3-methyl-6-pyridin-4-ylpyrimidin-4(3H)-one] | 101
CCN(c1nc(-c2ccncc2)cc(=O)n1C)C1CCN(S(=O)(=O)c2ccccc2)CC1 [Example 187, 2-{Ethyl[1-(phenylsulfonyl)piperidin-4-yl]amino}-3-methyl-6-pyridin-4-ylpyrimidin-4(3H)-one] | 102
Cn1c(NC[C@H]2CCCN2S(=O)(=O)c2ccccc2)nc(-c2ccncc2)cc1=O [Example 188, 3-Methyl-2-({[(2R)-1-(phenylsulfonyl)pyrrolidin-2-yl]methyl}amino)-6-pyridin-4-ylpyrimidin-4(3H)-one] | 94
CCN(C[C@H]1CCCN1S(=O)(=O)c1ccccc1)c1nc(-c2ccncc2)cc(=O)n1C [Example 189, 2-(Ethyl{[(2R)-1-(phenylsulfonyl)pyrrolidin-2-yl]methyl}amino)-3-methyl-6-pyridin-4-ylpyrimidin-4(3H)-one] | 95
Cn1c(NCC2CN(S(=O)(=O)c3ccccc3)C2)nc(-c2ccncc2)cc1=O [Example 190, 3-Methyl-2-({[1-(phenylsulfonyl)azetidin-3-yl]methyl}amino)-6-pyridin-4-ylpyrimidin-4(3H)-one] | 35
Cn1c(NCC2CCN(S(=O)(=O)c3ccccc3)C2)nc(-c2ccncc2)cc1=O (stereo not shown) [Example 191, 3-Methyl-2-({[1-(phenylsulfonyl)pyrrolidin-3-yl]methyl}amino)-6-pyridin-4-ylpyrimidin-4(3H)-one] | 76
Cn1c(NC2CCCN(S(=O)(=O)Cc3ccccc3)CC2)nc(-c2ccncc2)cc1=O (stereo not shown) [Example 192, 2-{[1-(Benzylsulfonyl)azepan-4-yl]amino}-3-methyl-6-pyridin-4-ylpyrimidin-4(3H)-one] | 81
Cn1c(N2CC[C@@H]3CN(S(=O)(=O)Cc4ccccc4)C[C@@H]32)nc(-c2ccncc2)cc1=O [Example 193, 2-[(3a,R6,aR)-5-(Benzylsulfonyl)hexahydro-pyrrolo[34-b]pyrrol-1(2H)-yl]-3-methyl-6-pyridin-4-ylpyrimidin-4(3H)-one] | 80
CN(c1nc(-c2ccncc2)cc(=O)n1C)C1CCN(S(=O)(=O)Cc2ccccc2)C1 (stereo not shown) [Example 194, 2-{[1-(Benzylsulfonyl)pyrrolidin-3-yl](methyl)amino}-3-methyl-6-pyridin-4-ylpyrimidin-4(3H)-one] | 90
CN(c1nc(-c2ccncc2)cc(=O)n1C)[C@@H]1CC[C@H]2N(S(=O)(=O)Cc3ccccc3)CCC2(C)C1 (stereo partly drawn) [Example 195, 2-{[(3,aS5,R7,aR)-1-(Benzylsulfonyl)-3a-methyloctahydro-1H-indol-5-yl](methyl)amino}-3-methyl-6-pyridin-4-ylpyrimidin-4(3H)-one] | 92
CN(c1nc(-c2ccncc2)cc(=O)n1C)C1CCCN(S(=O)(=O)Cc2ccccc2)CC1 (stereo not shown) [Example 196, 2-{[1-(Benzylsulfonyl)azepan-4-yl](methyl)amino}-3-methyl-6-pyridin-4-ylpyrimidin-4(3H)-one] | 94
CCN(c1nc(-c2ccncc2)cc(=O)n1C)C1CCCN(S(=O)(=O)Cc2ccccc2)CC1 (stereo not shown) [Example 197, 2-{[1-(Benzylsulfonyl)azepan-4-yl](ethyl)amino}-3-methyl-6-pyridin-4-ylpyrimidin-4(3H)-one] | 93
CCN(c1nc(-c2ccncc2)cc(=O)n1C)C1CCN(S(=O)(=O)Cc2ccccc2)C1 (stereo not shown) [Example 198, 2-{[1-(Benzylsulfonyl)pyrrolidin-3-yl](ethyl)amino}-3-methyl-6-pyridin-4-ylpyrimidin-4(3H)-one] | 97
CCN(c1nc(-c2ccncc2)cc(=O)n1C)C1CCN(S(=O)(=O)Cc2ccccc2)CC1 [Example 199, 2-{[1-(Benzylsulfonyl)piperidin-4-yl](ethyl)amino}-3-methyl-6-pyridin-4-ylpyrimidin-4(3H)-one] | 89

same assay, conditions: 1 μM; Examples 201-221

SMILES | Percent inhibition at 1 μM [%]
COC(=O)N1CCCC(N(C)c2nc(-c3ccncc3)cc(=O)n2C)CC1 (stereo not shown) [Example 214, Methyl 4-[methyl(1-methyl-6-oxo-4-pyridin-4-yl-16-dihydropyrimidin-2-yl)amino]azepane-1-carboxylate] | 99

same assay, conditions: 1 μM; Examples 201-221; read-out: Percent inhibition at 1 μM

SMILES | inhibition at 1 µM [%]
COC(=O)N1C[C@H]2CCN(c3nc(-c4ccncc4)cc(=O)n3C)[C@H]2C1 [Example 203, Methyl (3a,R6,aR)-1-(1-methyl-6-oxo-4-pyridin-4-yl-16-dihydropyrimidin-2-yl)hexahydropyrrolo[34-b]pyrrole-5(1H)-carboxylate] | 32
COC(=O)N1CCC(Nc2nc(-c3ccncc3)cc(=O)n2C)C1 (stereo not shown) [Example 204, Methyl 3-[(1-methyl-6-oxo-4-pyridin-4-yl-16-dihydropyrimidin-2-yl)amino]pyrrolidine-1-carboxylate] | 82
COC(=O)N1CCCC(Nc2nc(-c3ccncc3)cc(=O)n2C)CC1 (stereo not shown) [Example 205, Methyl 4-[(1-methyl-6-oxo-4-pyridin-4-yl-16-dihydropyrimidin-2-yl)amino]azepane-1-carboxylate] | 86
COC(=O)N1CCCCC(Nc2nc(-c3ccncc3)cc(=O)n2C)C1 (stereo not shown) [Example 206, Methyl 3-[(1-methyl-6-oxo-4-pyridin-4-yl-16-dihydropyrimidin-2-yl)amino]azepane-1-carboxylate] | 94
COC(=O)N1C[C@H](Nc2nc(-c3ccncc3)cc(=O)n2C)[C@@H](F)C1 [Example 207, Methyl (3S,4S)-3-fluoro-4-[(1-methyl-6-oxo-4-pyridin-4-yl-l6-dihydropyrimidin-2-yl)amino]pyrrolidine-1-carboxylate] | 74
COC(=O)N1CCC(Nc2nc(-c3ccncc3)cc(=O)n2C)CC1 [Example 208, Methyl 4-[(1-methyl-6-oxo-4-pyridin-4-yl-16-dihydropyrimidin-2-yl)amino]piperidine-1-carboxylate] | 77
COC(=O)N1CC(Nc2nc(-c3ccncc3)cc(=O)n2C)C1 [Example 209, Methyl 3-[(1-methyl-6-oxo-4-pyridin-4-yl-16-dihydropyrimidin-2-yl)amino]azetidine-1-carboxylate] | 80
COC(=O)N1CCCC(Nc2nc(-c3ccncc3)cc(=O)n2C)C1 (stereo not shown) [Example 210, Methyl 3-[(1-methyl-6-oxo-4-pyridin-4-yl-16-dihydropyrimidin-2-yl)amino]piperidine-1-carboxylate] | 99
COC(=O)N1C[C@H](F)[C@H](Nc2nc(-c3ccncc3)cc(=O)n2C)C1 [Example 211, Methyl (3S,4R)-3-fluoro-4-[(1-methyl-6-oxo-4-pyridin-4-yl-16-dihydropyrimidin-2-yl)amino]pyrrolidine-1-carboxylate] | 67
COC(=O)N1CCC(N(C)c2nc(-c3ccncc3)cc(=O)n2C)C1 (stereo not shown) [Example 213, Methyl 3-[methyl(1-methyl-6-oxo-4-pyridin-4-yl-16-dihydropyrimidin-2-yl)amino]pyrrolidine-1-carboxylate] | 95
CCN(c1nc(-c2ccncc2)cc(=O)n1C)C1CCCN(C(=O)OC)CC1 (stereo not shown) [Example 215, Methyl 4-[ethyl(1-methyl-6-oxo-4-pyridin-4-yl-16-dihydropyrimidin-2-yl)amino]azepane-1-carboxylate] | 93
COC(=O)N1CC[C@@]2(C)C[C@H](N(C)c3nc(-c4ccncc4)cc(=O)n3C)CC[C@@H]12 [Example 216, Methyl (3a,S5,R7,aR)-3a-methyl-5-[methyl(1-methyl-6-oxo-4-pyridin-4-yl-16-dihydropyrimidin-2-yl)amino]octahydro-1H-indole-1-carboxylate] | 88
CCN(c1nc(-c2ccncc2)cc(=O)n1C)C1CCN(C(=O)OC)CC1 [Example 217, Methyl 4-[ethyl(1-methyl-6-oxo-4-pyridin-4-yl-16-dihydropyrimidin-2-yl)amino]piperidine-1-carboxylate] | 84
COC(=O)N1CCC[C@H]1CNc1nc(-c2ccncc2)cc(=O)n1C [Example 218, Methyl (2S)-2-{[(1-methyl-6-oxo-4-pyridin-4-yl-16-dihydropyrimidin-2-yl)amino]methyl}pyrrolidine-1-carboxylate] | 68
COC(=O)N1CC(CNc2nc(-c3ccncc3)cc(=O)n2C)C1 [Example 219, Methyl 3-{[(1-methyl-6-oxo-4-pyridin-4-yl-16-dihydropyrimidin-2-yl)amino]methyl}azetidine-1-carboxylate] | 72
COC(=O)N1CCC[C@@H]1CNc1nc(-c2ccncc2)cc(=O)n1C [Example 220, Methyl (2R)-2-{[(1-methyl-6-oxo-4-pyridin-4-yl-16-dihydropyrimidin-2-yl)amino]methyl}pyrrolidine-1-carboxylate] | 91
COC(=O)N1CCC(CNc2nc(-c3ccncc3)cc(=O)n2C)C1 (stereo not shown) [Example 221, Methyl 3-{[(1-methyl-6-oxo-4-pyridin-4-yl-16-dihydropyrimidin-2-yl)amino]methyl}pyrrolidine-1-carboxylate] | 71
